Experimental data: article PMC10799292, “The Role of β-Defensin 1 Against Porphyromonas gingivalis Lipopolysaccharide-Mediated Inflammation in the THP-1 Cell Line” (Cureus, 2023)
No end group written: not given here.

Columns and labels:
RAW264.7 cells = settings: stimulated with LPS; cited from earlier work
Description: (§1) One of the primary virulence factors of periodontitis, Pg-LPS, targets TLR4, which activates the NF-kB signaling pathway and triggers the secretion of inflammatory cytokines such as TNFα, IL-6, and chemokines, recruiting monocytes/macrophages to the site of infection. […] Cecropin A, a novel 37-residue cecropin-like antimicrobial ...

THP-1 cells [1] = experiment: Cell cycle distribution by flow cytometry; type: cell-based, human; settings: Pg-LPS alone, compared to untreated control cells
Description: Untreated control and Pg-LPS stimulated cells were also maintained. The MUSE Cell Cycle Kit was added, and the manufacturer's instructions were followed.

phagocytosis = settings: via its effect on the cytoskeletal network; cited from earlier work
Description: Two important functions of macrophages are to eliminate pathogens through phagocytosis and apoptosis of inflammatory cells and their subsequent clearance (efferocytosis). The present study analyzed the role of AMP, β-defensin 1, in Pg-LPS-stimulated THP-1 differentiated macrophage cells.

[2] = system: THP-1 differentiated macrophage cell line; experiment: Cytotoxicity evaluation of Pg-LPS by MTT method; type: cell-based, human; settings: 24 h, 0.25-4 µg/mL
Description: The THP-1 cell line was cultured in DMEM and supplemented with 10% FBS, sodium bicarbonate, L-glutamine, and an antibiotic solution containing penicillin (100 U/mL), amphotericin B (2.5 µg/mL), and streptomycin (100 µg/mL). The cells were maintained in a 5% humidified CO2 incubator (NBS Eppendorf, Germany) at 37°C. To induce differentiation into macrophages, the THP-1 cell line was treated with 25 ng/mL phorbol 12-myristate 13-acetate (PMA) (cat. 91585, Sigma-Aldrich, USA) and incubated for 48 hours. Following incubation, the cells were seeded in a 96-well culture plate at a density of 5x10^4 cells/well and incubated for 24 hours in a humidified 5% CO2 incubator at 37°C.
After incubation of 24 hours, triplicate additions of Pg-LPS in various concentrations (0.25 µg, 0.5 µg, 1 µg, 2 µg, and 4 µg/mL) were done appropriately. […] The inhibitory concentration (IC50) value of Pg-LPS was determined by the ED50 software.
Inverted phase contrast microscopy (IPCM) using an Olympus CKX41 microscope (Olympus, Japan) equipped with an Optika Pro5 CCD camera (Optika, Italy) was utilized to directly observe the cells. Cell viability was determined using the MTT (3-(4,5-Dimethylthiazol-2-yl)-2,5-diphenyltetrazolium bromide) assay (Sigma, M-5655). […] The absorbance of this colored solution can be quantified by measuring at approximately 570 nm using a spectrophotometer. […]

THP-1 cells [3] = experiment: Apoptosis by flow cytometry (Annexin V & Dead Cell); type: cell-based, human; settings: Pg-LPS 1 µg/mL alone
Description: Untreated control and Pg-LPS treated wells were also maintained. To the tubes, 100 μL of the Muse™ Annexin V & Dead Cell Reagents were added separately. The tubes were completely mixed by pipetting up and down or spinning at a medium speed for three to five seconds, followed by 20 minutes of incubation in the dark at room temperature. The cells were examined with a Flow Cytometer, gated against untreated control cells, and evaluated for apoptosis with the Muse FCS 3.0 software.
The Muse Annexin V & Dead Cell Kit is a method to analyze cells in various stages of apoptosis, where fluorescently labeled Annexin V binds to phosphatidylserine (PS), which translocates to the outer surface of the cell membrane upon the onset of apoptosis. 7-AAD is excluded from live and healthy cells and permeates late-stage apoptotic and dead cells. […] The result is depicted in Figure 9.

THP-1 cells [4] = experiment: Intracellular ROS generation, DCFDA assay; type: cell-based, human; settings: Pg-LPS 1 µg/mL alone; DCFDA 30 min, ex 470 nm, em 635 nm; untreated control 2379
Description: Untreated control and Pg-LPS treated wells were also maintained. The cells were washed with PBS, and 50 µl of Dichlorodihydrofluorescein diacetate (DCFDA) was added, followed by incubation for 30 minutes. After incubation, excess dye was removed with PBS, and fluorescence was observed using a fluorescent microscope (Olympus CKX41 with Optika Pro5 CCD camera) and quantified with a fluorimeter at 470 nm excitation and emission at […] (Qubit 3.0, Life Technologies, USA), displaying the results in arbitrary units (AU).
The effect of β-defensin 1 on ROS generation in THP-1 cells stimulated with Pg-LPS was studied. DCFDA, a fluorogenic dye, measures hydroxyl, peroxyl, and other ROS activities within the cell. After entering the cell, DCFDA is deacetylated by cellular esterases into a non-fluorescent compound. This nonfluorescent chemical is then oxidized by ROS into […] (DCF), which, upon excitation with a blue filter, emits green fluorescence. When THP-1 cells were stimulated with Pg-LPS, there was a considerable increase in fluorescence, which decreased upon treatment with β-defensin 1, as shown in Figure 7 and Table 2.

[5] = directly interacting with LPS; cited from earlier work
Description: as §1

endothelial cells = settings: cited from earlier work
Description: as §1

Substance: Cecropin A: a novel 37-residue cecropin-like antimicrobial peptide isolated from a cecropia moth (KWKLFKKIEKVGQNIRDGIIKAGPAVAVVGQATQIAK; ends and bridges not checked; UniProt P01507 27-63, looked up)
- anti-inflammatory activities (RAW264.7 cells): showed anti-inflammatory activities

Substance: Porphyromonas gingivalis lipopolysaccharide [Pg-LPS]
- G0/G1 phase of the cell cycle (in words) (THP-1 cells [1]): increase in the G0/G1 phase of the cell cycle
- effect on phagocytosis (phagocytosis): suppresses phagocytosis
- cytotoxicity (in words) [2]: dose-dependent cytotoxicity
- live cells (THP-1 cells [3]; untreated control 87.25%): 74.40%
- necrotic effect / Dead (THP-1 cells [3]; untreated control Dead 3.65 %): 22.85%
- ROS generation, Fluorescence intensity (THP-1 cells [4]): 10743.55 AU

Substance: cathelicidin
- LPS-neutralizing effect [5]: potent LPS-neutralizing effect
- LPS-induced apoptosis (endothelial cells): reducing LPS-induced apoptosis in endothelial cells
